EPA's ToxValDB 9.5 (doi:10.2903/j.efsa.2006.85r)
Values after ≈ are worked out from the molar mass of the structure shown.

Legend:
Lepomis macrochirus = settings: acute; duration: 96 hours; mortality
Canidae = settings: oral, Dog Other, clinical chemistry
Daphnia magna = settings: chronic/long-term; duration: 21 days
Tagia sp. = settings: acute; duration: 14 days; mortality
Pimephales promelas = settings: chronic/long-term; duration: 34 days; growth
Apis mellifera = settings: acute; duration: 48 hours; oral; unspecified; mortality
Typhlodromus pyri = experiment: LR50; higher = less toxic; settings: not reported; mortality

CCOP(=S)(OCC)Oc1cc(C)nc(C(C)C)n1 [Diazinon] was tested. Which LC50 (Lepomis macrochirus) did it give?
The LC50 was 0.27 mg/L (≈ 0.887 µM).

What about the NOAEL (Rattus norvegicus; acute, oral, clinical chemistry) of the same compound?
The NOAEL was 2.5 mg/kg-day.

And the LD50 (Rattus norvegicus; acute, oral, mortality)?
Its LD50 is 1130 mg/kg-day.

And the NOEC (Rattus norvegicus; reproduction developmental, reproduction)?
The NOEC was 0.65 mg/kg-day.

What about the NOAEL (Canidae; chronic, duration: 52 weeks) of the same compound?
Its NOAEL is 0.02 mg/kg-day.

What about the NOAEL (Canidae; subchronic, duration: 90 days) of the same compound?
Its NOAEL is 0.02 mg/kg-day.

What about the NOEC (Daphnia magna) of the same compound?
The NOEC was 0.00017 mg/L.

What about the LD50 (Anas platyrhynchos; acute, oral, unspecified, mortality) of the same compound?
The LD50 was 1.44 mg/kg.

What about the NOEL (Anas platyrhynchos; reproductive) of the same compound?
Its NOEL is 1.2 mg/kg-day.

And the LC50 (Anas platyrhynchos; short-term, duration: 8 days, oral, feed, mortality)?
Its LC50 is 8 mg/kg-day.

And the LC50 (Tagia sp.)?
The LC50 was 65 mg/kg.

And the NOEL (Tagia sp.)?
The NOEL was 6.15 mg/kg.

What about the NOEC (Pimephales promelas) of the same compound?
Its NOEC is 0.092 mg/L.

And the LD50 (Apis mellifera)?
The LD50 was 0.09 µg/piece.

What about the LR50 (Typhlodromus pyri) of the same compound?
Its LR50 is 0.153 g/ha.
